Experimental data taken from ChEMBL document CHEMBL4699440, “Comprehensive review on the anti-bacterial activity of 1,2,3-triazole hybrids” (Eur J Med Chem, 2019).
≈ marks a conversion by molar mass, not a printed value. Each block holds one compound with its values, some of them ahead of it.

Columns and labels:
[1] = system: Bacillus cereus; experiment: Antibacterial activity against Bacillus cereus RCMB-010067 assessed as diameter of inhibition zone at 5 mg/ml by diffusion technique; format: functional; conditions: read-out: IZ
[2] = system: Micrococcus luteus; experiment: Antibacterial activity against Micrococcus luteus IFC 12708 incubated for 24 hrs by broth dilution method; format: functional
[3] = system: Bacillus spizizenii; experiment: Antibacterial activity against Bacillus subtilis ATCC 6633 incubated for 24 hrs by broth dilution method; format: functional
[4] = system: Micrococcus luteus; experiment: Antibacterial activity against Micrococcus Luteus ATCC 398 incubated for 24 hrs; format: functional
[5] = system: Pseudomonas fluorescens; experiment: Antibacterial activity against Pseudomonas fluorescens NCIM 2173 incubated for 24 hrs; format: functional
[6] = system: Staphylococcus aureus; experiment: Antibacterial activity against Staphylococcus aureus ATCC 29737 incubated for 24 hrs; format: functional
[7] = system: Escherichia coli; experiment: Antibacterial activity against Escherichia coli ATCC 25922 incubated for 24 hrs by broth dilution method; format: functional
[8] = system: Sphingomonas paucimobilis; experiment: Antibacterial activity against Flavobacterium devorans ATCC 10829 incubated for 24 hrs; format: functional
[9] = system: Staphylococcus aureus; experiment: Antibacterial activity against Staphylococcus aureus ATCC 6538p incubated for 24 hrs by broth dilution method; format: functional
[10] = system: Staphylococcus aureus; experiment: Antibacterial activity against Staphylococcus aureus RCMB-010010 assessed as diameter of inhibition zone at 5 mg/ml by diffusion technique; format: functional; conditions: read-out: IZ
[11] = system: Proteus vulgaris; experiment: Antibacterial activity against Proteus vulgaris ATCC 3851 incubated for 24 hrs by broth dilution method; format: functional
[12] = system: Bacillus cereus; experiment: Antibacterial activity against Bacillus cereus ATCC 6630 incubated for 24 hrs; format: functional
[13] = system: Salmonella typhimurium; experiment: Antibacterial activity against Salmonella typhimurium ATCC 14028 incubated for 24 hrs by broth dilution method; format: functional, Salmonella enterica subsp. enterica serovar Typhimurium; conditions: Salmonella enterica
[14] = system: Staphylococcus aureus; experiment: Antibacterial activity against Staphylococcus aureus MTCC 7443 incubated for 24 hrs by two-fold serial dilution method; format: functional
[15] = system: Candida albicans; experiment: Antifungal activity against Candida albicans MTCC 227 incubated for 2 days by microdilution method; format: functional; conditions: MTCC 227, 48 h, time 2 day
[16] = system: Aspergillus brasiliensis; experiment: Antifungal activity against Aspergillus brasiliensis MTCC 1344 incubated for 7 days by microdilution method; format: functional; conditions: MTCC 1344, 168 h, time 7 day
[17] = system: Bacillus subtilis; experiment: Antibacterial activity against Bacillus subtilis MTCC 441 incubated for 24 hrs by two-fold serial dilution method; format: functional
[18] = system: Pseudomonas aeruginosa; experiment: Potency index, ratio of ciprofloxacin MIC to test compound MIC for antimicrobial activity against Pseudomonas aeruginosa MTCC 424 incubated for 24 hrs by two-fold serial dilution method; format: functional
[19] = system: Escherichia coli; experiment: Potency index, ratio of ciprofloxacin MIC to test compound MIC for antimicrobial activity against Escherichia coli MTCC 1652 incubated for […] by two-fold serial dilution method; format: functional
[20] = system: Pseudomonas aeruginosa; experiment: Antibacterial activity against Pseudomonas aeruginosa MTCC 424 incubated for 24 hrs by two-fold serial dilution method; format: functional
[21] = system: Staphylococcus aureus; experiment: Potency index, ratio of ciprofloxacin MIC to test compound MIC for antimicrobial activity against Staphylococcus aureus MTCC 7443 incubated for 24 hrs by two-fold serial dilution method; format: functional
[22] = system: Bacillus subtilis; experiment: Potency index, ratio of ciprofloxacin MIC to test compound MIC for antimicrobial activity against Bacillus subtilis MTCC 441 incubated for 24 hrs by two-fold serial dilution method; format: functional

SMILES: CC1(C)S[C@@H]2[C@H](NC(=O)[C@H](N)c3ccccc3)C(=O)N2[C@H]1C(=O)O [AMPICILLIN]
zone of inhibition at 5000 µg/mL [1]: 23.8 mm
MIC [2]: 1.56 µg/mL (≈ 4.46 µM)
MIC [3]: 1.56 µg/mL (≈ 4.46 µM)
MIC [4]: 2 µg/mL (≈ 5.72 µM)
MIC [5]: 2 µg/mL (≈ 5.72 µM)
MIC [6]: 2 µg/mL (≈ 5.72 µM)
MIC [7]: 1.56 µg/mL (≈ 4.46 µM)
MIC [8]: 2 µg/mL (≈ 5.72 µM)
MIC [9]: 1.56 µg/mL (≈ 4.46 µM)
zone of inhibition at 5000 µg/mL [10]: 32.4 mm
MIC [11]: 1.56 µg/mL (≈ 4.46 µM)
MIC [12]: 2 µg/mL (≈ 5.72 µM)
MIC [13]: 1.56 µg/mL (≈ 4.46 µM)

MIC [2]: 1.56 µg/mL (≈ 2.25 µM)
MIC [3]: 1.56 µg/mL (≈ 2.25 µM)
MIC [7]: 1.56 µg/mL (≈ 2.25 µM)
MIC [9]: 1.56 µg/mL (≈ 2.25 µM)
MIC [11]: 1.56 µg/mL (≈ 2.25 µM)
MIC [13]: 1.56 µg/mL (≈ 2.25 µM)
SMILES: CC1(C)O[C@H]2O[C@@H]([C@H]3SC(Cc4nc5ccccc5[nH]4)C(=O)N3c3ccc(Cl)cc3)[C@@H](OCc3cn(-c4ccc(Cl)cc4)nn3)[C@H]2O1 (stereo partly drawn)

MIC [14]: 0.0199 µM (≈ 0.0125 µg/mL)
MIC [15]: 0.0199 µM (≈ 0.0125 µg/mL)
MIC [16]: 0.0199 µM (≈ 0.0125 µg/mL)
MIC [17]: 0.0199 µM (≈ 0.0125 µg/mL)
MIC [20]: 0.0199 µM (≈ 0.0125 µg/mL)
SMILES: O=C(Cn1cc(COc2ccc(OCc3cn(CC(=O)Nc4ccc([N+](=O)[O-])cc4)nn3)cc2)nn1)Nc1ccc([N+](=O)[O-])cc1
Ratio [18]: 2
Ratio [19]: 2
Ratio [21]: 2
Ratio [22]: 2
